Like-named read-outs stand apart in the source and are kept apart here.
Experiments:
KB Ch^R -8-5 Cells [1] = test: Vinca (VCR, VLB) accumulation, anti-MDR activity; assay type: cell-based; settings: Homo sapiens, compound 100 μM, 2 h, room temperature, mean of two experiments, SD <10%
Method: The resistance of the KBCh®-8-5 cells was maintained by culturing them with colchicine (10 ng/ml).
Then, 2 mL of cell suspensions (2×10^6) were plated in 35×10 mm style "easy grip" culture dishes (Becton Dickinson Co., Lincoln Park, N.J.). Cells were allowed to attach to plastic overnight at 37° C. Medium was aspirated and cells were washed with (2×2 mL) physiologic tris (PT) buffer. […] VCR (sp.act. 7.1 ci/mmol) or 49.5 nm [^3 H] […] After 2 h of incubation at room temperature, medium was rapidly aspirated to terminate drug accumulation, and monolayers were washed four times with ice-cold PBS (g/L: NaCL 8.0; Na2 HPO4.12H2 O, 2.9; KCl 0.2; KH2 PO4, 0.2) and drained. To each dish, 1 ml of trypsin-EDTA (0.05% trypsin, 0.53 mM EDTA) was added. After 1 minute, monolayers were triturated to give a uniform suspension of cells, and radioactivity in 0.75 ml was determined by scintillation counting. Cell number per dish was determined on 200 μl of suspension using the method of Butler, and amounts of intracellular VCR or VLB were determined.

GC3 /Cl Cells [2] = test: Vinca (VCR, VLB) accumulation, anti-MDR activity; assay type: cell-based; settings: Homo sapiens, compound 100 μM, 2 h, room temperature, mean of two experiments, SD <10%
KBCh^R -8-5 = test: Cytotoxicity of N-substituted phenoxazines to tumor cells (clonogenic survival); assay type: cell-based; settings: Homo sapiens, 168 h, 7 days, 37° C., read-out: IC50 (50% reduction in clonogenic survival)
Method: The KBCh®-8-5 cells were plated in triplicate at a density of 1000 cells per well and GC3 at 3000 cells per well in Falcon 6-well flat-bottom tissue culture plates (Becton Dickinson Co., Lincoln Park, N.J.). After 24 h, incubation medium was replaced with 3 mL of fresh medium containing compounds 1-4 or 10-14 or 18 at concentrations ranging from 1-100 μm (final culture concentration, 0.1% DMSO), and cells were incubated at 37° C. for a further 7 days. The medium was aspirated and cells were washed once with 2 mL of 0.9% saline and dried overnight. Colonies were stained with 1 mL of 0.1% crystal violet followed by washing twice with distilled water and were counted using an automated ARTEK Model 880 colony counter. The IC50 values were determined from concentration-percent-cell-survival curves and were defined as the concentrations of phenoxazines required for 50% reduction in colonies compared to controls.
^a IC50 is the concentration required to produce 50% reduction i
clonogenic survivial of GC3 /Cl and KBCH^R -85 cells under the
conditions described in Example 23.

GC3 /Cl Cells [3] = test: Potentiation of cytotoxicity of vincristine and vinblastine; assay type: cell-based; settings: Homo sapiens, 168 h
Method: (§1) Tumor cells were treated with graded concentrations of VCR and VLB in the absence or presence of nontoxic concentrations of the products of Examples 1, 3, 4 and 18. The plates were then transferred to a CO2 incubator and, after further incubation for 7 days at 37° C., colonies were enumerated as described in Example 23.
(§2) ^a IC50 concentration of modulator

KB Ch^R -8-5 Cells [4] = test: as above; assay type: cell-based; settings: Homo sapiens, 168 h
Method: as §1, §2

GC3 /CL = test: Resistance of cell line to VCR; assay type: cell-based, human; settings: relative to KB-3-1
Method: (§3) A cloned line of human colon adenocarcinoma, GC3 /Cl^31, which is intrinsically resistant to VCR (≈4-fold relative to KB-3-1), was routinely grown at 37° C. in antibiotic-free RPMI-1640 medium supplemented with 2 mM glutamine and 10% FBS (Hyclone Laboratories, Inc., Logan, Utah) in a humidified atmosphere of 5% CO2 and 95% air. Human epidermoid carcinoma KB-3-1 cells and a colchicine selected MDR variant, KBCh®-8-5, were obtained which was cross-resistant to VCR (45-fold) and VLB (6.3-fold); it was grown in monolayer culture at 37° C. in DMEM with 10% FBS and L-glutamine in a humidified atmosphere of 10% CO2 in air. The resistance of the KBCh®-8-5 cells was maintained by culturing them with colchicine (10 ng/ml).

KBCh®-8-5 = test: Cross-resistance of cell line to VCR and VLB; assay type: cell-based, human; settings: KBCh®-8-5, colchicine selected MDR variant
Method: as §3

MDR = settings: in model systems; cited from earlier work
MDR GC3 /Cl cells = settings: compared with verapamil; cited from earlier work
KBCh®-8-5 cells = settings: compared with verapamil; cited from earlier work
[5] = [3H] VCR 70.4 nm, read-out: Vinca Accumulation, VCR
[6] = [3H] VLB 49.5 nm, read-out: Vinca Accumulation, VLB

SMILES | activity at 100 µM (KB Ch^R -8-5 Cells [1]; [5]) | activity at 100 µM (KB Ch^R -8-5 Cells [1]; [6]) | activity at 100 µM (GC3 /Cl Cells [2]; [5]) | activity at 100 µM (GC3 /Cl Cells [2]; [6]) | further results
O=C(CCl)N1c2ccccc2Oc2ccccc21 [Compound 15, 10-(chloroacetyl)phenoxazine] | 138% | 236% | 171% | 284% | 
CCN(CC)CC(=O)N1c2ccccc2Oc2ccccc21 [Compound 16, 10-(diethylaminoacetyl)phenoxazine] | 184% | 953% | 160% | 305% | 
O=C(CN1CCOCC1)N1c2ccccc2Oc2ccccc21 [Compound 17, 10-(N-morpholinoacetyl)phenoxazine] | 290% | 674% | 213% | 298% | 
O=C(CN1CCCCC1)N1c2ccccc2Oc2ccccc21 [Compound 18, 10-(N-piperidinoacetyl)phenoxazine] | 326% |  | 177% | 446% | IC50 (KBCh^R -8-5): 73 µM
O=C(CN1CCN(CCO)CC1)N1c2ccccc2Oc2ccccc21 [Compound 19, 10-(β-hydroxyethylpiperazinoacetyl)phenoxazine] | 280% | 776% | 157% | 426% | 
O=C(CN1CCCC1)N1c2ccccc2Oc2ccccc21 [Compound 20, 10-(N-pyrrolidinoacetyl)phenoxazine] | 188% | 776% | 151% | 296% | 
O=C(N1c2ccccc2Oc2ccccc21)C(F)(F)F [Compound 21, 10-(trifluoroacetyl)phenoxazine] | 415% | 827% | 230% | 222% | 
CC[C@]1(O)C[C@H]2CN(CCc3c([nH]c4ccccc34)[C@@](C(=O)OC)(c3cc4c(cc3OC)N(C=O)[C@H]3[C@@](O)(C(=O)OC)[C@H](OC(C)=O)[C@]5(CC)C=CCN6CC[C@]43[C@@H]65)C2)C1 [VCR] |  |  |  |  | IC50 (GC3 /Cl Cells [3]; read-out: IC50 of VCR alone): 0.027 µM; IC50 (KB Ch^R -8-5 Cells [4]; read-out: IC50 of VCR alone): 0.032 µM; resistance to VCR (GC3 /CL): ≈ 4 fold; cross-resistance to VCR (KBCh®-8-5): 45 fold
CC[C@]1(O)C[C@@H]2CN(CCc3c([nH]c4ccccc34)[C@@](C(=O)OC)(c3cc4c(cc3OC)N(C)[C@H]3[C@@](O)(C(=O)OC)[C@H](OC(C)=O)[C@]5(CC)C=CCN6CC[C@]43[C@@H]65)C2)C1 [VLB] |  |  |  |  | IC50 (GC3 /Cl Cells [3]; read-out: IC50 of VLB alone): 0.0074 µM; IC50 (KB Ch^R -8-5 Cells [4]; read-out: IC50 of VLB alone): 0.02 µM; cross-resistance to VLB (KBCh®-8-5): 6.3 fold
COc1ccc(CCN(C)CCCC(C#N)(c2ccc(OC)c(OC)c2)C(C)C)cc1OC (centres unmarked) [Verapamil] |  |  |  |  | modifying MDR (MDR): active in modifying MDR
c1ccc2c(c1)Nc1ccccc1O2 [phenoxazine] |  |  |  |  | potentiation of uptake of VCR and VLB (MDR GC3 /Cl cells): to a greater extent than verapamil; potentiation of uptake of VCR and VLB (KBCh®-8-5 cells): to a greater extent than verapamil
C=C[C@H]1C[N@@]2CC[C@H]1C[C@@H]2[C@@H](O)c1ccnc2ccc(OC)cc12 [quinidine] |  |  |  |  | modifying MDR (MDR): active in modifying MDR
COC(=O)[C@H]1[C@H]2C[C@@H]3c4[nH]c5cc(OC)ccc5c4CCN3C[C@H]2C[C@@H](OC(=O)c2cc(OC)c(OC)c(OC)c2)[C@@H]1OC [reserpine] |  |  |  |  | modifying MDR (MDR): active in modifying MDR
CN1CCN(CCCN2c3ccccc3Sc3ccc(C(F)(F)F)cc32)CC1 [trifluoperazine] |  |  |  |  | modifying MDR (MDR): active in modifying MDR

— patent publication US5371081A, “N-substituted phenoxazines for treating multidrug resistant cancer cells” (St. Jude Children's Research Hospital, priority 1993, dated 1994)
